Key:
[1] = target: Cytochrome P450 3A4 (Homo sapiens, UniProt P08684); assay: Inhibition of CYP3A4 (unknown origin) using BFC as substrate; type: ADME
[2] = Permeability of compound at pH 5.5 measured after 4 hrs by PAMPA assay; type: ADME; settings: read-out: permeability
[3] = target: T1, AP2-associated protein kinase 1 (Homo sapiens, UniProt Q2M2I8); assay: Inhibition of GST-Xa tagged human AAK1 (30 to 330 residues) expresssed in bacteria using (5-FAM)-Aha-KEEQSQITSQVTGQIGWR-NH2 peptide as substrate incubated for 3 hrs in presence of ATP by electrophoretic analysis
[4] = target: Cytochrome P450 (Homo sapiens, UniProt P04798+P05177+P05181+P08684+P10632+P10635+P11509+P11712+P13584+P20813+P20815+P20853+P24462+P24903+P33260+P33261+P51589+P78329+P98187+Q02928+Q08477+Q16678+Q16696+Q5TCH4+Q6VVX0+Q7Z449+Q8TAV3+Q96SQ9+Q9HB55); assay: Metabolic stability in human liver microsomes assessed as CYP450-mediated metabolism by measuring parent compound remaining at 0.5 uM incubated for 10 mins in presence of NADPH by LC-MS/MS analysis; type: ADME; settings: read-out: Stability
[5] = Metabolic stability in rat liver microsomes assessed as CYP450-mediated metabolism by measuring parent compound remaining at 0.5 uM incubated for 10 mins in presence of NADPH by LC-MS/MS analysis; type: ADME; settings: read-out: Stability
[6] = Metabolic stability in mouse liver microsomes assessed as CYP450-mediated metabolism by measuring parent compound remaining at 0.5 uM incubated for 10 mins in presence of NADPH by LC-MS/MS analysis; type: ADME; settings: read-out: Stability
[7] = target: T1, AP2-associated protein kinase 1; assay: Inhibition of […] in HEK293F cells assessed as reduction in phospho mu2 formation incubated for 3 hrs by Western blot analysis; type: cell-based
[8] = system: Aorta; assay: Cardiotoxicity in rat aortic ring assessed as relaxation of phenylephrine induced aortic ring contraction at 10 uM incubated for 1 hr; type: toxicity, tissue-based; parameters: scale not given: the % may be the effect or the level left
[9] = Displacement of 3H-LP-927443 from AAK1 in mouse brain membrane homogenate assessed as inhibition constant at 1 uM incubated for 1 hr by liquid scintillation counter analysis; type: cell membranes
[10] = Protein binding in human plasma assessed as unbound fraction at 10 uM measured after 5 hrs by LC-MS/MS analysis; type: ADME, cell-free
[11] = Protein binding in rat plasma assessed as unbound fraction at 10 uM measured after 5 hrs by LC-MS/MS analysis; type: ADME, cell-free
[12] = Protein binding in mouse plasma assessed as unbound fraction at 10 uM measured after 5 hrs by LC-MS/MS analysis; type: ADME, cell-free
[13] = Permeability of compound at pH 7.4 measured after 4 hrs by PAMPA assay; type: ADME; settings: read-out: permeability
[14] = Permeability across apical to basolateral side in human Caco-2 cells at 3 uM measured after 2 hrs by LC-MS/MS analysis; type: ADME, cell-based; settings: read-out: permeability
[15] = Permeability across basolateral to apical side in human Caco-2 cells at 3 uM measured after 2 hrs by LC-MS/MS analysis; type: ADME, cell-based; settings: read-out: permeability
[16] = system: Rattus norvegicus; assay: Analgesic activity in streptozotocin induced diabetic peripheral neuropathic mechanical allodynia in overnight fasted Sprague-Dawley rat model assessed as reduction in pain response at 1 mg/kg, po measured after 5.5 hrs post treatment; type: functional; parameters: scale not given: the % may be the effect or the level left
[17] = Cmax in plasma of overnight fasted Sprague-Dawley rat model of streptozotocin induced diabetic peripheral neuropathic mechanical allodynia at 1 mg/kg, po measured after 5.5 hrs; type: ADME, organism-based; parameters: route oral, time 5.5 hrs, dose 1 mg/kg
[18] = Drug concentration in brain of overnight fasted Sprague-Dawley rat model of streptozotocin induced diabetic peripheral neuropathic mechanical allodynia at 1 mg/kg, po measured after 5.5 hrs; type: ADME, organism-based; settings: read-out: Ct
[19] = Drug concentration in streptozotocin induced diabetic peripheral neuropathic mechanical allodynia in overnight fasted Sprague-Dawley rat spinal cord at 1 mg/kg, po measured after 5.5 hrs; type: ADME, organism-based; settings: read-out: Ct
[20] = Ratio of drug concentration in brain to plasma in streptozotocin induced diabetic peripheral neuropathic mechanical allodynia in overnight fasted Sprague-Dawley rat at 1 mg/kg, po measured after 5.5 hrs; type: ADME, organism-based
[21] = target: MAP kinase-interacting serine/threonine-protein kinase 2 (Homo sapiens, UniProt Q9HBH9); assay: Inhibition of MNK2 (unknown origin)
[22] = target: Glycogen synthase kinase-3 alpha (Homo sapiens, UniProt P49840); assay: Inhibition of GSK3A (unknown origin)
[23] = target: cGMP-dependent protein kinase 2 (Homo sapiens, UniProt Q13237); assay: Inhibition of PKG2 (unknown origin)
[24] = Inhibition of PCKA (unknown origin); parameters: species or system Homo sapiens
[25] = target: BMP-2-inducible protein kinase (Homo sapiens, UniProt Q9NSY1); assay: Inhibition of BIKE (unknown origin)
[26] = target: Cyclin-G-associated kinase (Homo sapiens, UniProt O14976); assay: Inhibition of GAK (unknown origin)
[27] = target: Citron Rho-interacting kinase (Homo sapiens, UniProt O14578); assay: Inhibition of CRIK (unknown origin)
[28] = target: MAP kinase-interacting serine/threonine-protein kinase 1 (Homo sapiens, UniProt Q9BUB5); assay: Inhibition of MNK1 (unknown origin)
[29] = target: Serine/threonine-protein kinase N2 (Homo sapiens, UniProt Q16513); assay: Inhibition of PRK2 (unknown origin)
[30] = target: Rho-associated protein kinase 2 (Homo sapiens, UniProt O75116); assay: Inhibition of ROCK2 (unknown origin)
Sequence of Rho-associated protein kinase 2 (O75116 whole entry): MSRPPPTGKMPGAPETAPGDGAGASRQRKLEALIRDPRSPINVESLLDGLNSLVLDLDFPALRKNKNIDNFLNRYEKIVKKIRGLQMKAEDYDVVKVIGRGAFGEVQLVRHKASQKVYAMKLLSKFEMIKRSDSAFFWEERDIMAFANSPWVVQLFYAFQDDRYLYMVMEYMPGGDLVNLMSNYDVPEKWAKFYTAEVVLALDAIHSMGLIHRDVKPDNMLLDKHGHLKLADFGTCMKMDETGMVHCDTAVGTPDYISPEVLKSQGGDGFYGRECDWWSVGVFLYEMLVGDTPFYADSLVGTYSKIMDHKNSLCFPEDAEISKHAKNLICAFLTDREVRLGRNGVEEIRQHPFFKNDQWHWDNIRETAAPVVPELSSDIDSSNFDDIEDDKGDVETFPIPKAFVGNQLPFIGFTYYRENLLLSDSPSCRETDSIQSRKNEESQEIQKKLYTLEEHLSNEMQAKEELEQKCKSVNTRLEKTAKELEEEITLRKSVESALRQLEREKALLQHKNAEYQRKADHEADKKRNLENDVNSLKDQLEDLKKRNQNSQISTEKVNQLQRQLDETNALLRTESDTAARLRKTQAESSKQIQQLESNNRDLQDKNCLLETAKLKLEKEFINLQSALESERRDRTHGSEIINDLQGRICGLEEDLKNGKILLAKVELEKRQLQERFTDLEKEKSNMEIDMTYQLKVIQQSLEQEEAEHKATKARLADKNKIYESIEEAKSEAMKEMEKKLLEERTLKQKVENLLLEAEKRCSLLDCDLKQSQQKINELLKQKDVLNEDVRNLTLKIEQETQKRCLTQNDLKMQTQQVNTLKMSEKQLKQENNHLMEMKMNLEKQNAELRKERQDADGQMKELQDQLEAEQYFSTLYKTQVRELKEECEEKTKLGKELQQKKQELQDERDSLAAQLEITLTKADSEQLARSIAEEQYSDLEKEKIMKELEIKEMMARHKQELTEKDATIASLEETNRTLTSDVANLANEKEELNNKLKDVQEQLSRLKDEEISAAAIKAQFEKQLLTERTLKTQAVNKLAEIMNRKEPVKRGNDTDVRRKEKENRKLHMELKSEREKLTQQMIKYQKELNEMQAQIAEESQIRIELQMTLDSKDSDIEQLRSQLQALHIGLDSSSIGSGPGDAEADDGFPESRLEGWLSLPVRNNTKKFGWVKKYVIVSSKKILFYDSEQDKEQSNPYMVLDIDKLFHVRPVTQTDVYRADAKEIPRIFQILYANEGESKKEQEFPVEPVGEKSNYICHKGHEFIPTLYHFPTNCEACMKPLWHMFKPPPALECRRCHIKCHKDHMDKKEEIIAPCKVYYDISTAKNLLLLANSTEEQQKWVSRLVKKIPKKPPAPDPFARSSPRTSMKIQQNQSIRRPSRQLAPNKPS

T1 sequence (Q2M2I8 whole entry, the tested form may be a part): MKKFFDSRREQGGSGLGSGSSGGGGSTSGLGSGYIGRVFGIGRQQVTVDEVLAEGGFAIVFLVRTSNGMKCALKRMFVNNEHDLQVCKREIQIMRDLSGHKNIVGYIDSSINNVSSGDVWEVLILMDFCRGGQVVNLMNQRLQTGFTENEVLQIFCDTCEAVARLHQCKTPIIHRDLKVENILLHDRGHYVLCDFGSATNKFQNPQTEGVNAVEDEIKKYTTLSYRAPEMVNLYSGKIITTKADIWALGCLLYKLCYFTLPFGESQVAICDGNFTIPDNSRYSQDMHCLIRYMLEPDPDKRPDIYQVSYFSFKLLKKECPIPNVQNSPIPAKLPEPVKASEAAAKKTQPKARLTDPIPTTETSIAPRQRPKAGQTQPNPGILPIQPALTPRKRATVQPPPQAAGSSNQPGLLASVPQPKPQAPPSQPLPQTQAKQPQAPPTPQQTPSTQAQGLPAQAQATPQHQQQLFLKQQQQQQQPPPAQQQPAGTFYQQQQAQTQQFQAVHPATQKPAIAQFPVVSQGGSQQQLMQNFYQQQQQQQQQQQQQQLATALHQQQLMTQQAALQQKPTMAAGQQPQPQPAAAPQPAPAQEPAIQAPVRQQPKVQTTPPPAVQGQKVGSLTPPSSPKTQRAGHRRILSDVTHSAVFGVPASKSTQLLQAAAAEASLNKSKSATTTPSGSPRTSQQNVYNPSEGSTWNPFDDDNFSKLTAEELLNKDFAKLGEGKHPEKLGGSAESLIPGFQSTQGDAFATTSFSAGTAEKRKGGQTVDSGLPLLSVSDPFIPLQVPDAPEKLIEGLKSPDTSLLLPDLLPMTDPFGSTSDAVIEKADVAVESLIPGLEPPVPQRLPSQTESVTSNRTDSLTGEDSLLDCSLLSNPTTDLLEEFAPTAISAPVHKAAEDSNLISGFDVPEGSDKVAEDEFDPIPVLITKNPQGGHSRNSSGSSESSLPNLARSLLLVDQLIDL
Sequence of Cytochrome P450 3A4 (P08684 whole entry): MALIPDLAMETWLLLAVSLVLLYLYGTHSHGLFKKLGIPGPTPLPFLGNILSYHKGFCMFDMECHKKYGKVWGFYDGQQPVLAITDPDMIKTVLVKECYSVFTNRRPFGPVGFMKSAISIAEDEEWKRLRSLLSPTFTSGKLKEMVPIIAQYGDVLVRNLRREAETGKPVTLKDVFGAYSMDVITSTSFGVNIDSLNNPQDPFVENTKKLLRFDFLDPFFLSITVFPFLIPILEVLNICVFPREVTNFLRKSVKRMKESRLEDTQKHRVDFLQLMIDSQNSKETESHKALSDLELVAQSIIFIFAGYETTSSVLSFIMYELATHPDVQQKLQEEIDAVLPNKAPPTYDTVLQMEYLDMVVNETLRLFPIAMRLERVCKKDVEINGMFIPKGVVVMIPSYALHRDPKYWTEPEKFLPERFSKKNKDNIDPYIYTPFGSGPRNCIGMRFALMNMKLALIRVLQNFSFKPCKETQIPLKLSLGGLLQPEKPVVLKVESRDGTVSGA
Sequence of cGMP-dependent protein kinase 2 (Q13237 whole entry): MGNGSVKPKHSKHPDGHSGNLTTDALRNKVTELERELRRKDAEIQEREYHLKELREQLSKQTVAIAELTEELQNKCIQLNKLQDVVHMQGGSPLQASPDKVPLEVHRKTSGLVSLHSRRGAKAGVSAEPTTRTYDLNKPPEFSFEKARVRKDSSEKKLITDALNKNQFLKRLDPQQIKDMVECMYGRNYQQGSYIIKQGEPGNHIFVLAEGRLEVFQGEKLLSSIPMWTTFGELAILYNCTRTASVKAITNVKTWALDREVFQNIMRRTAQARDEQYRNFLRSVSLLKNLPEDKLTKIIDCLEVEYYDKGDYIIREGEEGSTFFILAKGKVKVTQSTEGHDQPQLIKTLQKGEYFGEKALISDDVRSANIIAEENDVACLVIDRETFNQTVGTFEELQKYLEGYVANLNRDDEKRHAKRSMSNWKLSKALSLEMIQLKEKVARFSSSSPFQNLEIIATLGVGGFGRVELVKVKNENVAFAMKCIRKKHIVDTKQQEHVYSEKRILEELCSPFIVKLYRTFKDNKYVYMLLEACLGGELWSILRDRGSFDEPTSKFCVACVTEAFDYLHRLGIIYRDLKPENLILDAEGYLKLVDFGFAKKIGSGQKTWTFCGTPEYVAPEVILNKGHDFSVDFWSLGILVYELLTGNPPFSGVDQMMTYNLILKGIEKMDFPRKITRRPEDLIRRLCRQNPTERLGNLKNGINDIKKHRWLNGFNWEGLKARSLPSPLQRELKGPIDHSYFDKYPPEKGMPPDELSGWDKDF
Sequence of Glycogen synthase kinase-3 alpha (P49840 whole entry): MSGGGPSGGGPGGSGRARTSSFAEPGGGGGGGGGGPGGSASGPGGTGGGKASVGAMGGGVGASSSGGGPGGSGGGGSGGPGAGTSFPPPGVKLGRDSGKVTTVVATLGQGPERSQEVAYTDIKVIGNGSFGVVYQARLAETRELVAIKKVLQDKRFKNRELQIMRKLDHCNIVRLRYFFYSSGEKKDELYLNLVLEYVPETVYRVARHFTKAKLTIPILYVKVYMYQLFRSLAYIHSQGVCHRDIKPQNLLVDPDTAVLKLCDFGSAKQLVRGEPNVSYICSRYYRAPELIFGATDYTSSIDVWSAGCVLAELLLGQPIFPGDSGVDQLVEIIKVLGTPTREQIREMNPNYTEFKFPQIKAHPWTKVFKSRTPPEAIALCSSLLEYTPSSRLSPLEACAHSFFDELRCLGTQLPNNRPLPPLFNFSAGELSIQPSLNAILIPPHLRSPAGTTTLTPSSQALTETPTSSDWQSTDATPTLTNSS
Sequence of Serine/threonine-protein kinase N2 (Q16513 whole entry): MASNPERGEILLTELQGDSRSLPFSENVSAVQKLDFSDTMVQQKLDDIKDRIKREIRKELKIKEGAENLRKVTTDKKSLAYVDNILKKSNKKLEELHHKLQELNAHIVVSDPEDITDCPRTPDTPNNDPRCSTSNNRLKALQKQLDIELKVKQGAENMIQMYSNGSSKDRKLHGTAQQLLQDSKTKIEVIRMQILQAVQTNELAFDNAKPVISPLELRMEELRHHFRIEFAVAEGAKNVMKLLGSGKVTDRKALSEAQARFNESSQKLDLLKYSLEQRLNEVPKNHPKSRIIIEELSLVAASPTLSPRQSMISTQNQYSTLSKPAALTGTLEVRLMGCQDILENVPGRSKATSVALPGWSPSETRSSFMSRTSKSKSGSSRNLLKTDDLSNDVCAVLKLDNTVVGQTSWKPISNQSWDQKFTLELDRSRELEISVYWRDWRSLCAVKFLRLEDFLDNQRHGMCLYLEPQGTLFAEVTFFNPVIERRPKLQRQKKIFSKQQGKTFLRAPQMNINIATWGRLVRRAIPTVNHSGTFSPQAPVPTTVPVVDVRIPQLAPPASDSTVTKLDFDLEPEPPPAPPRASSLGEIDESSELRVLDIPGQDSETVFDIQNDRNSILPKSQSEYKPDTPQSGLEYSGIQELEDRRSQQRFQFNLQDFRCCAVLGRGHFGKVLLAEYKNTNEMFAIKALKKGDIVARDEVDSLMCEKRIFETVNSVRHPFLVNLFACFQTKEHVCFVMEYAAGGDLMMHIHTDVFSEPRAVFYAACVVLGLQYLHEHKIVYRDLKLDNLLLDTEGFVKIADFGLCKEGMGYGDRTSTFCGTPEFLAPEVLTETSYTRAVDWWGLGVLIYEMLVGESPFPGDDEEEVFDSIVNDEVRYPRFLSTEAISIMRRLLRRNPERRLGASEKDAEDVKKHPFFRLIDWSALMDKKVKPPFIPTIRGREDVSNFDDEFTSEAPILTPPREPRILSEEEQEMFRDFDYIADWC

| SMILES | IC50 [1] [nM] | IC50 [3] [nM] | remaining at 10 min, 0.5 µM [4] [%] | remaining at 10 min, 0.5 µM [5] [%] | remaining at 10 min, 0.5 µM [6] [%] | IC50 [7] [nM] | Ki [9] [nM] | Activity [8] [%] | further results |
| --- | --- | --- | --- | --- | --- | --- | --- | --- | --- |
| Cc1cc(-c2ccc(OC[C@@](C)(N)CC(C)C)c(C#N)c2)ccn1 | > 20000 |  |  |  |  |  |  |  |  |
| CC(C)C[C@](C)(N)COc1ccc(-c2ccnc(F)c2)cc1C(F)(F)F | > 20000 |  |  |  |  |  |  |  |  |
| Cc1cc(-c2ccc(OC[C@@](C)(N)CC(C)C)c(C3CC3)c2)ccn1 | > 20000 |  |  |  |  |  |  |  |  |
| CC(C)C[C@H](N)COc1ccc(-c2ccnc(C(F)(F)F)c2)cc1C#N | 1300 |  |  |  |  |  |  |  |  |
| COc1cc(-c2ccc(OC[C@@H](N)CC(C)C)c(C#N)c2)ccn1 | 540 |  |  |  |  |  |  |  |  |
| Cc1cc(-c2cnc(OC[C@@](C)(N)CC(C)C)c(C#N)c2)ccn1 |  |  |  |  |  |  |  | 28 |  |
| CC(C)C[C@](C)(N)COc1ccc(-c2ccncc2)cc1C(F)(F)F | 630 | 0.6 |  |  |  | 29 | 0.17 |  |  |
| CC(C)C[C@](C)(N)COc1ccc(-c2ccnc(C(F)F)c2)nc1Cl |  |  |  |  |  |  |  | 64 |  |
| CC(C)C[C@](C)(N)COc1ncc(-c2ccnc(C(F)F)c2)cc1C#N |  |  |  |  |  |  |  | 50 |  |
| Cc1cc(-c2ccc(OC[C@@](C)(N)CC(C)C)c(C(F)(F)F)c2)ccn1 | > 20000 | 0.9 | 89 | 86 | 66 | 25 | 0.22 | 69 | fraction unbound at 5 h, 10 µM [10]: 0.02; fraction unbound at 5 h, 10 µM [11]: 0.026; fraction unbound at 5 h, 10 µM [12]: 0.017; Papp at 4 h [2]: 36 ×10⁻⁶ cm/s; Papp at 4 h [13]: 30.5 ×10⁻⁶ cm/s; Papp A→B at 2 h, 3 µM [14]: 7.1 ×10⁻⁶ cm/s; Papp B→A at 2 h, 3 µM [15]: 5.9 ×10⁻⁶ cm/s |
| Cc1cc(-c2ccc(OC[C@@H](N)CC(C)C)c(C#N)c2)ccn1 | 2400 | 0.8 |  |  |  | 89 | 0.71 |  |  |
| CC(C)C[C@H](N)COc1ccc(-c2ccncc2)cc1 | 8700 |  |  |  |  |  |  |  |  |

Continued, in another order:

| IC50 [1] [nM] | IC50 [3] [nM] | remaining at 10 min, 0.5 µM [4] [%] | remaining at 10 min, 0.5 µM [5] [%] | remaining at 10 min, 0.5 µM [6] [%] | IC50 [7] [nM] | Ki [9] [nM] | SMILES | Activity [8] [%] | further results |
| --- | --- | --- | --- | --- | --- | --- | --- | --- | --- |
| > 20000 |  |  |  |  |  |  | CC(C)C[C@](C)(N)COc1ccc(-c2ccnc(C(F)F)c2)cc1C1CC1 |  | Papp at 4 h [2]: 78.4 ×10⁻⁶ cm/s |
|  | 1.9 | 43 | 65 | 43 |  |  | Cc1cc(-c2cnc(OC[C@@](C)(N)CC(C)C)c(C(F)F)c2)ccn1 |  |  |
|  | 3.1 | 89 | 88 | 76 | 9.1 |  | CC(C)C[C@](C)(N)COc1ncc(-c2ccnc(Cl)c2)cc1C(F)F |  |  |
|  | 3.9 | 97 | 87 | 85 |  |  | CC(C)C[C@](C)(N)COc1ccc(-c2ccnc(Cl)c2)nc1C(F)F | 59 |  |
| 18000 | 0.6 | 94 | 92 | 98 | 7.8 | 0.07 | CC(C)C[C@](C)(N)COc1ccc(-c2ccnc(C(F)F)c2)cc1C(F)(F)F |  | fraction unbound at 5 h, 10 µM [10]: 0.008; fraction unbound at 5 h, 10 µM [11]: 0.004; fraction unbound at 5 h, 10 µM [12]: 0.002; Papp at 4 h [2]: 33.9 ×10⁻⁶ cm/s; Papp at 4 h [13]: 55 ×10⁻⁶ cm/s; Papp A→B at 2 h, 3 µM [14]: 3.3 ×10⁻⁶ cm/s; Papp B→A at 2 h, 3 µM [15]: 1.7 ×10⁻⁶ cm/s; Activity [16]: 30%; Cmax [17]: 80 nM; concentration at 5.5 h [18]: 880 nM; concentration at 5.5 h [19]: 510 nM; Kp at 5.5 h [20]: 11; IC50 [21]: 380 nM; IC50 [22]: 1700 nM; IC50 [23]: 380 nM |
| > 20000 | 0.4 | 74 | 81 | 69 | 0.8 | 0.08 | Cc1cc(-c2ccc(OC[C@@](C)(N)CC(C)C)c(C(F)F)c2)ccn1 | 57 | fraction unbound at 5 h, 10 µM [10]: 0.037; fraction unbound at 5 h, 10 µM [11]: 0.031; fraction unbound at 5 h, 10 µM [12]: 0.02; Papp at 4 h [2]: 69.7 ×10⁻⁶ cm/s; Papp at 4 h [13]: 31.9 ×10⁻⁶ cm/s; Papp A→B at 2 h, 3 µM [14]: 9.5 ×10⁻⁶ cm/s; Papp B→A at 2 h, 3 µM [15]: 6 ×10⁻⁶ cm/s |
|  | 36 | 95 | 83 | 78 |  | 7.2 | Cc1cc(-c2ccc(OC[C@@](C)(N)CC(C)C)c(C)n2)ccn1 | 1 |  |
|  | 2.9 | 81 | 82 | 71 | 11 | 1.1 | Cc1cc(-c2ccc(OC[C@@](C)(N)CC(C)C)c(C(F)F)n2)ccn1 | 26 |  |
| > 20000 | 0.6 | 85 | 71 | 97 | 6.4 | 0.25 | CC(C)C[C@](C)(N)COc1ccc(-c2ccnc(C(F)F)c2)cc1C#N | 100 | fraction unbound at 5 h, 10 µM [10]: 0.14; fraction unbound at 5 h, 10 µM [11]: 0.14; fraction unbound at 5 h, 10 µM [12]: 0.079; Papp at 4 h [2]: 68.1 ×10⁻⁶ cm/s; Papp at 4 h [13]: 68.7 ×10⁻⁶ cm/s; Papp A→B at 2 h, 3 µM [14]: 22.2 ×10⁻⁶ cm/s; Papp B→A at 2 h, 3 µM [15]: 17.7 ×10⁻⁶ cm/s |
| 16000 | 0.4 | 96 | 83 |  | 0.9 | 0.04 | CC(C)C[C@](C)(N)COc1ccc(-c2ccnc(C(F)F)c2)cc1C(F)F | 84 | IC50 [24]: 580 nM; fraction unbound at 5 h, 10 µM [10]: 0.046; fraction unbound at 5 h, 10 µM [11]: 0.045; fraction unbound at 5 h, 10 µM [12]: 0.018; Papp at 4 h [2]: 99.9 ×10⁻⁶ cm/s; Papp at 4 h [13]: 42.7 ×10⁻⁶ cm/s; Papp A→B at 2 h, 3 µM [14]: 10.8 ×10⁻⁶ cm/s; Papp B→A at 2 h, 3 µM [15]: 6.2 ×10⁻⁶ cm/s; IC50 [25]: 280 nM; IC50 [26]: 73 nM; IC50 [27]: 56 nM; IC50 [28]: 180 nM; IC50 [23]: 420 nM; IC50 [29]: 440 nM; IC50 [30]: 420 nM |

From ChEMBL document CHEMBL5046296 (J Med Chem, 2022)
